Laboratory results reported in patent publication US20230210994A1, “CELL-PENETRATING CONJUGATE SYSTEMS” (Danmarks Tekniske Universitet, priority 2019, published 2023).
“Also recorded” adds a separate entry of the source.

Columns and labels:
[1] = system: CT26 cells; assay: Uptake of Oxaliplatin by CT26 cells measured by ICP-MS; type: cell-based, mouse; details: for enhancement of OxPt internalization versus OxPt alone: 10 μM OxPt, 24 hours
Experimental: CT26 cells were seeded in 24-well plate (100.000 cells/mL/well) exposed to Oxaliplatin (Ox-Pt, 10 μM and 30 μM) with/and without conjugate the molar ratio of 1:1, 1:3 and 3:1 respectively. After 1, 4, 24 hours of incubation, media was discarded and the cells were washed with PBS twice, once with heparin (to remove anything associated externally with the cell membrane) and once more with PBS. Then the cells were detached from the wells using trypsin and cells were counted. Finally, each sample was diluted in HCl acid and further diluted in 2% HCl with (0.5 ppb Ir), then Pt content was measured in the ICP-MS.

[2] = system: CT26 colon cancer cells; assay: Internalization of INS-FITC in CT26 cells, flow cytometry and fluorescent imaging; type: cell-based, mouse
Experimental: CT26 colon cancer cells were seeded in 24-well plates at 100.000 cells/well/mL. After 24 hours, cells were treated with INS-FITC at 10 μM or 30 μM concentration either alone or in combination with the conjugate 4-hydroxybutyl L-tryptophanate in three different molar ratios (1:1, 1:3 or 3:1). Treatments were co-incubated with the CT26 cells for 1 h, 4 h or 24 h. Before observation, cells were washed several times with PBS, and with heparin, to ensure removal of compounds that might remain softly bound to cell membrane and not internalized. Then the washed cells were detached from the wells using trypsin, centrifuged and re-suspended in PBS for analysis by flow cytometry. In flow the cells were gated as singlets (single cell events) and then the fluorescence was recorded for each event in the specific FL channel were the compound has its emission max (INS-FITC: FL1 (525+/−40).

[3] = system: CT-26 cells; assay: Cellular internalization of insulin (Novorapid) in CT-26 cells, MALDI-TOF; type: cell-based, mouse; details: commercial insulin (20 μl) + conjugate (20 μl), 4 hours
Experimental: MALDI-TOF is a standard technique for analysis of molecules based upon their mass/charge (m/z) ratio. In this study, the inventors exposed CT-26 cells with commercial insulin (20 μl) and conjugate system, 4-hydroxybutyl L-tryptophanate (20 μl). After 4 hours, the cells were sonicated (ruptured) and cell-debris removed; Resulting supernatant was subjected to MALDI analysis.

[4] = system: pig intestine (gut epithelium); assay: Binding of conjugate system to the pig intestine (gut epithelium) ex vivo
Experimental: Biological functionality and compliance was tested utilizing intestinal tissue from pigs. A cross section of the pig intestine (1 cm^2)was cleaned and subjected to the conjugate (1 mg/ml; 3.65 mM). After incubation (1 hour) of said tissue with the conjugate system, 4-hydroxybutyl L-tryptophanate, the tissue was washed and excess mucous layer removed by gentle physical exfoliation (scrapping via a spatula).

[5] = system: CT-26 cells; assay: Ethidium-homodimer internalization in CT-26 cells, fluorescent confocal microscopy; type: cell-based, mouse
Experimental: CT-26 cells in culture were co-incubated with the conjugate system, 4-hydroxybutyl L-tryptophanate, (1 mg/ml) and Etidium-homodimer (2 μl/ml) for 1 hour and observed under fluorescent confocal microscope. Working ratio was set as 1:3 and two reaction sets comprising of higher (80 μl) loading and standard loading (40 μl ) were performed. Emission bandwidth was set as 490-550nm and 590-680 nm.

[6] = In vivo insulin delivery and bioavailability experiment, oral enteric-coated capsule; set-up: species or system Sprague-Dawley rats
Experimental: […] Insulin dosage was estimated to be ˜120 I.U. The capsule was mechanically guided across the duodenum and rat-tail plasma samples were collected for a period of 3 hours (at specified periodic intervals). Blood glucose measurement was made with Glucometer and plasma insulin concentration via ELISA.

[7] = system: CT-26 cells; assay: Internalization of Paclitaxel (PTX) in CT-26 cells measured by flow cytometry; type: cell-based, mouse
Experimental: There is a remarkable increment in the percentage of cells containing PTX when co-administered with the conjugate, especially after 24 hours incubation. (c) depicts the amount of PTX internalization expressed as mean fluorescence intensity (MFI).

[8] = system: CT26 cells; assay: Internalization of resiquimod (R848) in CT26 cells detected by HPLC; type: cell-based, mouse
Experimental: CT26 cells were seeded in 24-well plates (10^5 cells/well). After 24 hours the cells were treated with either 100 or 300 μM concentration of resiquimod (R848) alone or in combination with the 4-hydroxybutyl L-tryptophanate conjugate. After 4 and 24 hours incubation cells were washed with cold PBS and with heparin solution (0.1 mg/mL heparin in PBS), and detached from the wells using trypsin. Then the cells were diluted in acetonitrile with 0.1% TFA and the amount of R848 was detected by HPLC.

[9] = system: mouse CD-4 (+) T-cells; assay: Fluorescent tagging of T-cells, confocal Z-stack imaging; type: cell-based; details: 100 μL conjugate (1 mg/ml) added to 500 μL cell suspension, 24 hours
Experimental: 100 μL 4-hydroxybutyl L-tryptophanate conjugate (1 mg/ml) was added to the cell suspension solution (500 μL; 1×10^5 cells/mL) and incubated for 24 hours. Cells were washed with PBS buffer and analyzed via Z-stack imaging was to confirm internalization of the 4-hydroxybutyl L-tryptophanate conjugate. Cell imaging was done for 0, 24, 48 and 72 hours—though 24 hours was found the optimum time frame.

Compound: O=C1[O][Pt]2([NH][C@@H]3CCCC[C@H]3[NH]2)[O]C1=O [OxPt, Oxaliplatin, reference compound]
- OxPt uptake over time ([1]; 30 μM OxPt alone, peaking at 4 h): no apparent increase

Compound: INS-FITC: fluorescently labelled insulin, insulin conjugated with FITC [reference compound]
- internalization in cells (share of cells) ([2]; INS-FITC alone): 100%

Compound: N[C@@H](Cc1c[nH]c2ccccc12)C(=O)OCCCCO [4-hydroxybutyl L-tryptophanate]
- insulin signal in MALDI-TOF of cell supernatant [3]: clearly distinct
- fluorescence signal on tissue (tissue binding and transmembrane penetration) ([4]; conjugate 1 mg/ml (3.65 mM), 1 hour incubation, tissue washed, excess mucous layer removed): clear fluorescence signal
- normalized fluorescence intensities on tissue versus controls on glass ([4]; conjugate 1 mg/ml, 1 hour): higher than controls incubated on a glass sample
- penetration across mucosal layer and binding to gut epithelium despite repeated washes ([4]; pig intestine with mucus): deeply penetrate across mucosal layer on intestinal epithelium and bind to the tissue
- fluorescence under fluorescent microscope ([2]; conjugate alone, post 24-hours incubation): No observable fluorescence
- percentage increase of INS-FITC internalization (MFI) compared to free insulin at the same concentration ([2]; conjugate to insulin 30:10 μM, 24 hours): around 72.3%
- percentage increase of INS-FITC internalization (MFI) ([2]; conjugate:INS-FITC 10:10 μM, 4 hours): 20.5%
- percentage increase of INS-FITC internalization (MFI) ([2]; insulin to conjugate 30:10 μM, constant from 4 to 24 hours): 11.4%
- internalization of Ethidium-homodimer (EtDi) ([5]; EtDi 2 μl/ml co-administered with conjugate 1 mg/ml, 1 hour): confirmed; also recorded: got internalized into the cells
- increase of EtDi fluorescence (mean pixel intensity of confocal images) compared with EtDi alone ([5]; EtDi combined with the conjugate): 8.67 fold
- condition of CT-26 cells and membranes after co-administration ([5]; conjugate 1 mg/ml + EtDi 2 μl/ml, 1 hour): healthy with fully intact membranes
- Z-stack analysis at single cell level ([5]; conjugate + EtDi): internalization of both the EtDi and conjugate
- drop in blood sugar ([6]; insulin 1.1 mg (~80 I.U) + conjugate 8 mg, within twenty minutes, n=3): ~15%
- drop in blood sugar ([6]; insulin 1.5 mg (~120 I.U.) + conjugate 0.5 mg, within the first hour, n=2): ~20%
- % cells uptake (1 h), CT-26 cells with PTX internalized ([7]; Conjugate 10 μM + PTX 10 μM, 1 h): 4.7%
- % cells uptake (4 h), CT-26 cells with PTX internalized ([7]; Conjugate 10 μM + PTX 10 μM, 4 h): 6.2%
- % cells with uptake (24 h), CT-26 cells with PTX internalized ([7]; Conjugate 10 μM + PTX 10 μM): 22.1%
- % cells uptake (1 h), CT-26 cells with PTX internalized ([7]; Conjugate 10 μM + PTX 30 μM, 1 h): 5.0%
- % cells uptake (4 h), CT-26 cells with PTX internalized ([7]; Conjugate 10 μM + PTX 30 μM, 4 h): 6.9%
- % cells with uptake (24 h), CT-26 cells with PTX internalized ([7]; Conjugate 10 μM + PTX 30 μM): 29.2%
- % cells uptake (1 h), CT-26 cells with PTX internalized ([7]; Conjugate 30 μM + PTX 10 μM, 1 h): 11.2%
- % cells uptake (4 h), CT-26 cells with PTX internalized ([7]; Conjugate 30 μM + PTX 10 μM, 4 h): 17.6%
- % cells with uptake (24 h), CT-26 cells with PTX internalized ([7]; Conjugate 30 μM + PTX 10 μM, listed as Conjugate): 49.8%
- % cells with uptake (24 h), CT-26 cells with PTX internalized ([7]; Conjugate 30 μM + PTX 10 μM, listed as conjugate): up to 50%
- Percentage increase in PTX signal (MFI) compared to PTX alone; head: % cells with uptake (24 h) ([7]; PTX 10 μM, Conjugate:PTX molar ratio 1:1 (10:10)): 22.3%
- Percentage increase in PTX signal (MFI) compared to PTX alone; head: % cells uptake (1 h) ([7]; PTX 10 μM, Conjugate:PTX molar ratio 1:1, 1 h): 6.8%
- Percentage increase in PTX signal (MFI) compared to PTX alone; head: % cells uptake (4 h) ([7]; PTX 10 μM, Conjugate:PTX molar ratio 1:1, 4 h): 12.4%
- Percentage increase in PTX signal (MFI) compared to PTX alone; head: % cells uptake (1 h) ([7]; PTX 10 μM, Conjugate:PTX molar ratio 3:1 (30:10), 1 h): 20.6%
- Percentage increase in PTX signal (MFI) compared to PTX alone; head: % cells uptake (1 h) ([7]; PTX 10 μM, Conjugate:PTX molar ratio 3:1 (30:10), 1 h, listed as Conjugate): 7.8%
- Percentage increase in PTX signal (MFI) compared to PTX alone; head: % cells uptake (4 h) ([7]; PTX 10 μM, Conjugate:PTX molar ratio 3:1 (30:10), 4 h): 32.4%
- Percentage increase in PTX signal (MFI) compared to PTX alone; head: % cells uptake (4 h) ([7]; PTX 10 μM, Conjugate:PTX molar ratio 3:1 (30:10), 4 h, listed as Conjugate): 11.4%
- Percentage increase in PTX signal (MFI) compared to PTX alone; head: % cells with uptake (24 h) ([7]; PTX 10 μM, Conjugate:PTX molar ratio 3:1 (30:10)): 56.2%
- Percentage increase in PTX signal (MFI) compared to PTX alone; head: % cells with uptake (24 h) ([7]; PTX 10 μM, Conjugate:PTX molar ratio 3:1 (30:10), listed as Conjugate): 27.1%
- Percentage increase in PTX signal (MFI) compared to PTX alone; head: % cells uptake (1 h) ([7]; PTX 30 μM, Conjugate:PTX molar ratio 1:3 (10:30), 1 h): 20.6%
- Percentage increase in PTX signal (MFI) compared to PTX alone; head: % cells uptake (4 h) ([7]; PTX 30 μM, Conjugate:PTX molar ratio 1:3 (10:30), 4 h): 32.4%
- Percentage increase in PTX signal (MFI) compared to PTX alone; head: % cells with uptake (24 h) ([7]; PTX 30 μM, Conjugate:PTX molar ratio 1:3 (10:30)): 27.1%
- Percentage increase in PTX signal (MFI) compared to PTX alone; head: % cells with uptake (24 h) ([7]; PTX 30 μM, Conjugate:PTX molar ratio 1:3 (10:30), listed as Conjugate): 56.2%
- Fold increase internalization of resiquimod (R848) compared to R848 alone ([8]; conjugate (100 μM) + R848 (100 μM), 4 hours, listed as 4-hydroxybutyl L-tryptophanate conjugate): 4.9 fold
- Fold increase internalization of resiquimod (R848) compared to R848 alone ([8]; conjugate (100 μM) + R848 (100 μM), 24 hours): 0.9 fold
- Fold increase internalization of resiquimod (R848) compared to R848 alone ([8]; conjugate (100 μM) + R848 (300 μM), 4 hours): 1.4 fold
- Fold increase internalization of resiquimod (R848) compared to R848 alone ([8]; conjugate (100 μM) + R848 (300 μM), 24 hours): 1.8 fold
- Fold increase internalization of resiquimod (R848) compared to R848 alone ([8]; conjugate (300 μM) + R848 (100 μM), 4 hours): 1.5 fold
- Fold increase internalization of resiquimod (R848) compared to R848 alone ([8]; conjugate (300 μM) + R848 (100 μM), 24 hours): 1.1 fold
- cellular internalization of the conjugate (Z-stack imaging, fluorescence 488 nm) [9]: confirmed cellular internalization
- enhancement of OxPt internalization versus OxPt alone ([1]; conjugate:OxPt 10:10 molar ratio): 37.6%
- enhancement of OxPt internalization versus OxPt alone ([1]; conjugate:OxPt 30:10 molar ratio): 23.5%
- internalization percentage of OxPt increased to ([1]; 30 μM OxPt, 10:30 ratio (Conj.:OxPt)): 451%
- Pt signal in CT26 cells compared to OxPt alone ([1]; combination of OxPt and the conjugate, overall): increased amount of Pt signal
